Laboratory results published in patent US11535594B2, “Microbiocidal picolinamide derivatives” (Syngenta Participations AG, priority 2017, dated 2022).

Columns and labels:
[1] = test system: Glomerella Lagenarium (Colletotrichum lagenarium); test: Glomerella lagenarium (Colletotrichum lagenarium) / liquid culture (anthracnose); format: cell-based; conditions: Colletotrichum orbiculare, PDB potato dextrose broth, 24° C., 3 to 4 days after application, compared to untreated checks, read-out: disease control (inhibition of growth, photometric)
Procedure: (§1) Glomerella Lagenarium (Colletotrichum lagenarium)/Liquid Culture (Anthracnose) Conidia of the fungus from cryogenic storage are directly mixed into nutrient broth (PDB potato dextrose broth). After placing a (DMSO) solution of test compound into a microtiter plate (96-well format), the nutrient broth containing the fungal spores is added. The test plates are incubated at 24° C. and the inhibition of growth is measured photometrically 3 to 4 days after application.

[2] = test system: Puccinia Recondite f. Sp. Tritici; test: Puccinia recondita f. sp. tritici / wheat / leaf disc preventative (brown rust); format: in vivo; conditions: foliar, wheat leaf segments cv. Kanzler, inoculated 1 day after application, assessed 7-9 days after application, compared to untreated, read-out: disease control
Procedure: Puccinia Recondite f. Sp. Tritici/Wheat/Leaf Disc Preventative (Brown Rust) Wheat leaf segments cv. Kanzler are placed on agar in multiwell plates (24-well format) and sprayed with the formulated test compound diluted in water. The leaf disks are inoculated with a spore suspension of the fungus 1 day after application. The inoculated leaf segments are incubated at 19° C. and 75% rh under a light regime of 12 h light/12 h darkness in a climate cabinet and the activity of a compound is assessed as percent disease control compared to untreated when an appropriate level of disease damage appears in untreated check leaf segments (7-9 days after application).

[3] = test system: Botryotinia fuckeliana (Botrytis cinerea); test: Botryotinia fuckeliana (Botrytis cinerea) / liquid culture (gray mould); format: cell-based; conditions: Vogels broth, 24° C., 3-4 days after application, compared to untreated checks, read-out: disease control (inhibition of growth, photometric)
Procedure: as §1, with “Botryotinia fuckeliana (Botrytis cinerea)/Liquid” for “Glomerella Lagenarium (Colletotrichum lagenarium)/Liquid”, “(Gray Mould)” for “(Anthracnose)”, “(Vogels” for “(PDB potato dextrose”, “determined” for “measured”, “3-4” for “3 to 4”

[4] = test system: Mycosphaerella arachidis (Cercospora arachidicola); test: Mycosphaerella arachidis (Cercospora arachidicola) / liquid culture (early leaf spot); format: cell-based; conditions: PDB potato dextrose broth, 24° C., 4-5 days after application, compared to untreated checks, read-out: disease control (inhibition of growth, photometric)
Procedure: as §1, with “Mycosphaerella arachidis (Cercospora arachidicola)/Liquid” for “Glomerella Lagenarium (Colletotrichum lagenarium)/Liquid”, “(Early Leaf Spot)” for “(Anthracnose)”, “determined” for “measured”, “4-5” for “3 to 4”

[5] = test system: Phaeosphaeria nodorum (Septoria nodorum); test: Phaeosphaeria nodorum (Septoria nodorum) / wheat / leaf disc preventative (glume blotch); format: in vivo; conditions: Parastagonospora nodorum, foliar, 120 h, wheat leaf segments cv. Kanzler, inoculated 2 days after application, assessed 5-7 days after application, compared to untreated, read-out: disease control
Procedure: Phaeosphaeria nodorum (Septoria nodorum)/Wheat/Leaf Disc Preventative (Glume Blotch) Wheat leaf segments cv. Kanzler are placed on agar in a multiwell plate (24-well format) and sprayed with the formulated test compound diluted in water. The leaf disks are inoculated with a spore suspension of the fungus 2 days after application. The inoculated test leaf disks are incubated at 20° C. and 75% rh under a light regime of 12 h light/12 h darkness in a climate cabinet and the activity of a compound is assessed as percent disease control compared to untreated when an appropriate level of disease damage appears in untreated check leaf disks (5-7 days after application).

[6] = test system: Mycosphaerella Graminicola (Septoria tritici); test: Mycosphaerella graminicola (Septoria tritici) / liquid culture (Septoria blotch); format: cell-based; conditions: Zymoseptoria tritici, PDB potato dextrose broth, 24° C., 4 to 5 days after application, compared to untreated checks, read-out: disease control (inhibition of growth, photometric)
Procedure: (§2) Mycosphaerella Graminicola (Septoria tritici)/Liquid Culture (Septoria Blotch) Conidia of the fungus from cryogenic storage are directly mixed into nutrient broth (PDB potato dextrose broth). After placing a (DMSO) solution of test compound into a microtiter plate (96-well format), the nutrient broth containing the fungal spores is added. The test plates are incubated at 24° C. and the inhibition of growth is determined photometrically 4 to 5 days after application.

[7] = test system: Magnaporthe grisea (Pyricularia oryzae); test: whole plant or invertebrate; format: in vivo; conditions: foliar, read-out: disease control
[8] = test system: Monographella nivalis (Microdochium nivale); test: Monographella nivalis (Microdochium nivale) / liquid culture (foot rot cereals); format: cell-based; conditions: PDB potato dextrose broth, 24° C., 4-5 days after application, compared to untreated checks, read-out: disease control (inhibition of growth, photometric)
Procedure: as §2, with “Monographella nivalis (Microdochium nivale)/Liquid” for “Mycosphaerella Graminicola (Septoria tritici)/Liquid”, “(Foot Rot Cereals)” for “(Septoria Blotch)”, “4-5” for “4 to 5”

COc1ccnc(C(=O)N[C@@H](C)C(=O)ON(C)C(c2ccc(F)cc2)c2ccc(Cl)cc2)c1O (stereo partly drawn) [I.t.01, [[(4-chlorophenyl)-(4-fluorophenyl)methyl]-methyl-amino] (2S)-2-[(3-hydroxy-4-methoxy-pyridine-2-carbonyl)amino] propanoate]
≥ 80%: inhibition at 200 ppm [1] | pest or weed control at 200 ppm [2] | inhibition at 200 ppm [3] | inhibition at 200 ppm [4] | pest or weed control at 200 ppm [5]

COc1ccnc(C(=O)N[C@@H](C)C(=O)ON(C)C(C)(c2ccccc2)c2ccccc2)c1O [I.m.02, [1,1-diphenylethyl (methyl)amino] (2S)-2-[(3-hydroxy-4-methoxy-pyridine-2-carbonyl)amino] propanoate]
≥ 80%: inhibition at 200 ppm [6] | pest or weed control at 200 ppm [7] | pest or weed control at 200 ppm [2] | inhibition at 200 ppm [4] | pest or weed control at 200 ppm [5]

COc1ccnc(C(=O)N[C@@H](C)C(=O)ON(C)C(c2ccc(Cl)cc2)c2ccc(Cl)cc2)c1O [I.u.01, [bis(4-chlorophenyl)methyl-methyl-amino] (2S)-2-[(3-hydroxy-4-methoxy-pyridine-2-carbonyl)amino] propanoate]
≥ 80%: inhibition at 200 ppm [1] | inhibition at 200 ppm [6] | pest or weed control at 200 ppm [7] | pest or weed control at 200 ppm [2] | inhibition at 200 ppm [4] | pest or weed control at 200 ppm [5]

COc1ccnc(C(=O)N[C@@H](C)C(=O)ON(C)C(C)(c2ccc(Cl)cc2)c2ccc(Cl)cc2)c1O [I.u.02, [1,1-bis(4-chlorophenyl)ethyl-methyl-amino] (2S)-2-[(3-hydroxy-4-methoxy-pyridine-2-carbonyl)amino]propanoate]
≥ 80%: inhibition at 200 ppm [1] | inhibition at 200 ppm [6] | inhibition at 200 ppm [8] | inhibition at 200 ppm [3] | inhibition at 200 ppm [4] | pest or weed control at 200 ppm [5]

COc1ccnc(C(=O)N[C@@H](C)C(=O)ON(C)C(c2ccc(F)cc2)c2ccc(F)cc2)c1O [I.s.01, [bis(4-fluorophenyl)methyl-methyl-amino] (2S)-2-[(3-hydroxy-4-methoxy-pyridine-2-carbonyl)amino]propanoate]
≥ 80%: inhibition at 200 ppm [1] | inhibition at 200 ppm [6] | pest or weed control at 200 ppm [7] | pest or weed control at 200 ppm [2] | inhibition at 200 ppm [8] | inhibition at 200 ppm [4] | pest or weed control at 200 ppm [5]

COc1ccnc(C(=O)N[C@@H](C)C(=O)ON(C)C(C)(c2ccc(F)cc2)c2ccc(F)cc2)c1O [I.s.02, [1,1-bis(4-fluorophenyl)ethyl-methyl-amino] (2S)-2-[(3-hydroxy-4-methoxy-pyridine-2-carbonyl)amino] propanoate]
≥ 80%: inhibition at 200 ppm [1] | inhibition at 200 ppm [6] | pest or weed control at 200 ppm [7] | inhibition at 200 ppm [3] | inhibition at 200 ppm [4] | pest or weed control at 200 ppm [5]

CCC(c1ccccc1)(c1ccccc1)N(C)OC(=O)[C@H](C)NC(=O)c1nccc(OC)c1O [I.m.03, [1,1-diphenylpropyl (methyl)amino] (2S)-2-[(3-hydroxy-4-methoxy-pyridine-2-carbonyl)amino]propanoate]
≥ 80%: inhibition at 200 ppm [6] | inhibition at 200 ppm [8] | inhibition at 200 ppm [3] | inhibition at 200 ppm [4] | pest or weed control at 200 ppm [5]

COc1ccnc(C(=O)N[C@@H](C)C(=O)ON(C)C(c2ccccc2)C2CCCC2)c1O (stereo partly drawn) [I.h.01, [[cyclopentyl(phenyl)methyl]-methyl-amino] (2S)-2-[(3-hydroxy-4-methoxy-pyridine-2-carbonyl)amino] propanoate]
≥ 80%: inhibition at 200 ppm [1] | inhibition at 200 ppm [6] | pest or weed control at 200 ppm [7] | pest or weed control at 200 ppm [2] | inhibition at 200 ppm [4] | pest or weed control at 200 ppm [5]

COc1ccnc(C(=O)N[C@@H](C)C(=O)ON(C)C(C)(c2ccc(Cl)cc2)c2ccc(Cl)cc2)c1OCOC(=O)C(C)C [I.u.26, [2-[[(1S)-2-[1,1-bis(4-chlorophenyl)ethyl-methyl-amino]oxy-1-methyl-2-oxo-ethyl]carbamoyl]-4-methoxy-3-pyridyl] oxymethyl 2-methylpropanoate]
≥ 80%: inhibition at 200 ppm [6] | pest or weed control at 200 ppm [2] | inhibition at 200 ppm [8] | inhibition at 200 ppm [3] | inhibition at 200 ppm [4]

COc1ccc(C(c2ccc(OC)cc2)N(C)OC(=O)[C@H](C)NC(=O)c2nccc(OC)c2O)cc1 [I.ab.01, [bis(4-methoxy phenyl)methyl-methyl-amino] (2S)-2-[(3-hydroxy-4-methoxy-pyridine-2-carbonyl)amino]propanoate]
≥ 80%: inhibition at 200 ppm [1] | inhibition at 200 ppm [6] | pest or weed control at 200 ppm [2] | inhibition at 200 ppm [3] | inhibition at 200 ppm [4] | pest or weed control at 200 ppm [5]

COc1ccnc(C(=O)N[C@@H](C)C(=O)ON(C)C(c2ccc(C)cc2)c2ccc(C)cc2)c1O [I.v.01, [bis-p-tolylmethyl (methyl)amino] (2S)-2-[(3-hydroxy-4-methoxy-pyridine-2-carbonyl)amino]propanoate]
≥ 80%: inhibition at 200 ppm [1] | inhibition at 200 ppm [6] | pest or weed control at 200 ppm [2] | inhibition at 200 ppm [8] | inhibition at 200 ppm [3] | inhibition at 200 ppm [4]

CCOc1ccc(C(c2ccc(OCC)cc2)N(C)OC(=O)[C@H](C)NC(=O)c2nccc(OC)c2O)cc1 [I.ac.01, [bis(4-ethoxy phenyl)methyl-methyl-amino] (2S)-2-[(3-hydroxy-4-methoxy-pyridine-2-carbonyl)amino]propanoate]
≥ 80%: inhibition at 200 ppm [1] | inhibition at 200 ppm [6] | pest or weed control at 200 ppm [2] | inhibition at 200 ppm [8] | inhibition at 200 ppm [3] | inhibition at 200 ppm [4] | pest or weed control at 200 ppm [5]

COc1ccnc(C(=O)N[C@@H](C)C(=O)ON(C)C(c2ccccc2)c2ccc(F)cc2)c1O (stereo partly drawn) [I.n.01, [[(4-fluorophenyl)-phenyl-methyl]-methyl-amino] (2S)-2-[(3-hydroxy-4-methoxy-pyridine-2-carbonyl)amino]propanoate]
≥ 80%: inhibition at 200 ppm [1] | inhibition at 200 ppm [6] | pest or weed control at 200 ppm [7] | pest or weed control at 200 ppm [2] | inhibition at 200 ppm [8] | inhibition at 200 ppm [4] | pest or weed control at 200 ppm [5]

COc1ccnc(C(=O)N[C@@H](C)C(=O)ON(C)C(C)(c2ccc(F)cc2)c2ccc(F)cc2)c1OC(C)=O [I.s.14, [1,1-bis(4-fluorophenyl)ethyl-methyl-amino] (2S)-2-[(3-acetoxy-4-methoxy-pyridine-2-carbonyl)amino] propanoate]
≥ 80%: inhibition at 200 ppm [6] | pest or weed control at 200 ppm [7] | inhibition at 200 ppm [4] | pest or weed control at 200 ppm [5]
